The record followed here is patent US10301305B2 (priority 2014, dated 2019).

Where a name gives a salt, the structure may show the parent alone. Read-outs that look alike come from different tables or passages of the source.

What all share (type): biochemical
The target in one test is S. aureus DltA (Staphylococcus aureus (strain NCTC 8325 / PS 47), UniProt Q2FZW6). As to the kind of experiment: in vitro DltA activity assay (luminescence), S. aureus DltA. How it is done: (§1) The effect of the compounds of the invention on DltA enzymes has been based on the measure of their inhibition of DltA activity in vitro. To this end, recombinant proteins DltA were expressed and purified after cloning of the genes of S. aureus, E. faecalis, E. faecium and S. agalactiae as described thereafter. The capacity of the compounds of the invention to inhibit DltA enzymatic activity was assessed using the DltA assays as described below:
(§2) The dltA gene was amplified from chromosomal DNA of S. aureus, E. faecalis, E. faecium and S. agalactiae and introduced into E. coli BL21 (Invitrogen, Carlsbad, Calif.) following manufacturer's instruction. Bacteria were grown at 37° C. under aerobic conditions and isopropyl-beta-D-thiogalactopyranoside (IPTG) was added to 0.5-1 mM when OD600 of the bacterial culture had reached 0.5. After a further incubation for 3 hours, cells were harvested by centrifugation. Purification of the recombinant DltA protein was performed by affinity chromatography on nickel-nitrilotriacetic acid (Ni-NTA) column following manufacturer's instructions (Qiagen). Fractions containing recombinant DltA protein were adjusted to 50% glycerol and stored at −20° C. until use.
(§3) The binding potency of the inhibitors against DltA enzyme was assessed by IC50 determination in an in vitro DltA activity assay. The assay buffer “AB” contained 50 mM Hepes pH8.0, 10 mM MgCl2, 50 mM KCl, 0.012% Triton-X100, 10 mM DTT and 100 nM Myelin-basic protein. The following components were added in a white polystyrene Costar plate up to a final volume of 30 μL: 3 μL DMSO, or inhibitor dissolved in DMSO and 27 μL DltA enzyme in AB. After 30 min of pre-incubation at room temperature, 30 μL of Substrates mix in AB were added in each well to a final volume of 60 μL. This reaction mixture was then composed of DltA (produced in house from S. aureus, E. faecalis, E. faecium and S. agalactiae), 0.5 mM D-Alanine (Sigma), 0.5-5 μM ATP (Sigma) and 0.05 u/ml inorganic pyrophosphatase (Sigma) in assay buffer. After typically 1-2 hours of incubation at room temperature (conversion rate around 30%), 30 μL of the revelation mix were added to a final volume of 90 μL, including the following constituents at the respective final concentrations: 10000 u/ml luciferase (Sigma), 30 μM D-luciferin (Sigma), 100 μM N-acetylcysteamine (Aldrich). Luminescence intensity was immediately measured on a Fluostar Optima (BMG) (excitation 360 nm, emission 520 nm) and converted into inhibition percentages. For IC50 determinations (Inhibitory Concentration 50%) the inhibitor was added at 6 to 10 different concentrations and the related inhibitions were fitted to a classical Langmuir equilibrium model using XLFIT (IDBS).
(§4) For compounds interfering with the luminescent signal (quenching), the same experiment without DltA enzyme was performed to allow quenching determination and correction.

For the next test, the target named is E. feacalis DltA (Enterococcus faecalis, UniProt Q830N0). As to the kind of experiment: in vitro DltA activity assay (luminescence), E. faecalis DltA. How it is done: as §1, §2, §3, §4
For a further test, the target named is E. feacium DltA (Enterococcus faecium, UniProt Q3XZT7). Put plainly: in vitro DltA activity assay (luminescence), E. faecium DltA. How it is done: as §1, §2, §3, §4
A further test has as its target S. Agalactiae DltA (Streptococcus agalactiae serotype III (strain NEM316), UniProt Q8VM67). As to the kind of experiment: in vitro DltA activity assay (luminescence), S. agalactiae DltA. How it is done: as §1, §2, §3, §4
Setting [1] is: recombinant DltA, 30 min pre-incubation, 0.5 mM D-Alanine, 0.5-5 μM ATP, read-out: S. aureus DltA IC50.
Setting [2] is: recombinant DltA, 30 min pre-incubation, 0.5 mM D-Alanine, 0.5-5 μM ATP, read-out: E. feacalis DltA IC50.
[3] abbreviates: recombinant DltA, 30 min pre-incubation, 0.5 mM D-Alanine, 0.5-5 μM ATP, read-out: E. feacium DltA IC50.
The mark [4] stands for this setting: recombinant DltA, 30 min pre-incubation, 0.5 mM D-Alanine, 0.5-5 μM ATP, read-out: S. Agalactiae DltA IC50.

E. feacium DltA, sequence (Q3XZT7 1-504): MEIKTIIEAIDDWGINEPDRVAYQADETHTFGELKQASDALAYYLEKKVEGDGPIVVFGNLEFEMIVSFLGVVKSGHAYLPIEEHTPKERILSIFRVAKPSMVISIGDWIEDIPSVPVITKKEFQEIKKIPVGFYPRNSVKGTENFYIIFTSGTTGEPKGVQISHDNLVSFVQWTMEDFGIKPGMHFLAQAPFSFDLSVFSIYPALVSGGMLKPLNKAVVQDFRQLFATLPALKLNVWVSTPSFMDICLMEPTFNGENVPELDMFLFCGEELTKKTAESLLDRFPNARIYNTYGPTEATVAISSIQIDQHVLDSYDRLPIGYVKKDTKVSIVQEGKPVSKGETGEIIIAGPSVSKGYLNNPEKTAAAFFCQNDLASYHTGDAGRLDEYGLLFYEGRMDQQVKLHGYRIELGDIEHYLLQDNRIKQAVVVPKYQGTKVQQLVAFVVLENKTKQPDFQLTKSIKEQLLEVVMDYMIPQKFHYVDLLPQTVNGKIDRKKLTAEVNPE
E. feacalis DltA, sequence (Q830N0 1-506): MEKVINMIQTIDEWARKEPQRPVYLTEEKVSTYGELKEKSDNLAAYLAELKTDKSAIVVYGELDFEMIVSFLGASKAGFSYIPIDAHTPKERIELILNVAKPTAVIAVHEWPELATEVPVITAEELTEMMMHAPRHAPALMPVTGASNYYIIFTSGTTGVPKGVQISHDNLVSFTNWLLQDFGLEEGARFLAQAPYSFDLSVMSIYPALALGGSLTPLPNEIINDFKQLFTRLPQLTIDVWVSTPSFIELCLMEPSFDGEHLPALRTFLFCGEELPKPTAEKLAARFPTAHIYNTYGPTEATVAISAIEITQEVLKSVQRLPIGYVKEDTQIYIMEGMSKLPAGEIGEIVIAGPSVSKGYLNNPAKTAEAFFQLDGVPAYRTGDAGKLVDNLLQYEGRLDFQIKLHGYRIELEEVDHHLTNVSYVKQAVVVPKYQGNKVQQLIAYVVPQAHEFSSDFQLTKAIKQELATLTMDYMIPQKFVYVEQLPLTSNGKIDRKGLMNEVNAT

As for `NC(=O)c1c(OC[C@H]2CCCN2)cc(-c2ccc3c(c2)ncn3[C@@H]2CCCC[C@H]2F)c2nc[nH]c12` [Example 214, 7-[1-[(1R,2R)-2-fluorocyclohexyl]benzimidazol-5-yl]-5-[[(2R)-pyrrolidin-2-yl]methoxy]-3H-benzimidazole-4-carboxamide methanesulfonic acid salt], the IC50 (usually the midpoint of a concentration-inhibition curve) was found to be 4 nM at S. aureus DltA, 4 nM at E. feacalis DltA, 32 nM on E. feacium DltA and 390 nM at S. Agalactiae DltA.
As for `N#Cc1c(NCCO)cc(-c2ccc3c(c2)ncn3C2CCCCC2)c2nc[nH]c12` [Example 78], the IC50 on S. aureus DltA (setting [1]) worked out at 210 nM; on E. feacalis DltA (setting [2]), 170 nM; at E. feacium DltA (setting [3]), 590 nM; on S. Agalactiae DltA (setting [4]), 5400 nM.
The matching figures for `OCCC1CCN(c2cc(-c3ccc4c(c3)ncn4C3CCCCC3)c3nc[nH]c3n2)C1` (stereo not drawn) [Example 10, 2-{1-[7-(1-Cyclohexyl-1H-benzimidazol-5-yl)-3H-imidazo[4,5-b]pyridin-5-yl]-pyrrolidin-3-yl}-ethanol]: 160 nM, 72 nM, 120 nM and 3800 nM.
The corresponding values for `CCn1cnc2cc(-c3cc(N(C)CCN(C)C)c(C(N)=O)c4[nH]cnc34)cc(F)c21` [Example 227, 5-[2-(dimethylamino)ethyl-methyl-amino]-7-(1-ethyl-7-fluoro-benzimidazol-5-yl)-3H-benzimidazole-4-carboxamide] are 32 nM, 30 nM, 83 nM and 1300 nM.
Take `c1nc2c(-c3ccc4c(c3)ncn4C3CCCCC3)nc(N3CC4CNCC4C3)cc2[nH]1` (stereo not drawn) [Example 24, 4-(1-Cyclohexyl-1H-benzimidazol-5-yl)-6-(hexahydro-pyrrolo[3,4-c]pyrrol-2-yl)-1H-imidazo[4,5-c]pyridine]: the IC50 worked out at 38 nM on S. aureus DltA (setting [1]), 570 nM on E. feacalis DltA (setting [2]), 3700 nM on E. feacium DltA (setting [3]) and 5200 nM on S. Agalactiae DltA (setting [4]).
`CN(C)CCCN(C)c1cc(-c2ccc3c(c2)ncn3C2CCCCC2)c2nc[nH]c2c1C(N)=O` [Example 122, 1′-Cyclohexyl-6-[(3-dimethylamino-propyl)-methyl-amino]-1H,1′H-[4,5′]bibenzimidazolyl-7-carboxamide]: the IC50 on S. aureus DltA (setting [1]) was determined as 59 nM; on E. feacalis DltA (setting [2]), 31 nM; at E. feacium DltA (setting [3]), 82 nM; on S. Agalactiae DltA (setting [4]) it was 1800 nM.
In the case of `CN(C)C1CCCN(c2cc(-c3cnc4c(c3)CCCO4)c3nc[nH]c3c2C(N)=O)C1` (stereo not drawn) [Example 222, 7-(3,4-dihydro-2H-pyrano[2,3-b]pyridin-6-yl)-5-[3-(dimethylamino)-1-piperidyl]-3H-benzimidazole-4-carboxamide], the IC50 on S. aureus DltA (setting [1]) amounted to 47 nM; at E. feacalis DltA (setting [2]) it was 9 nM; on E. feacium DltA (setting [3]), 67 nM; at S. Agalactiae DltA (setting [4]), 180 nM.
Consider `OC[C@H]1CCN(c2cc(-c3ccc4c(c3)ncn4C3CCCCC3)c3nc[nH]c3n2)C[C@@H]1O` [Example 2, (3R,4R)-1-[7-(1-Cyclohexyl-1H-benzimidazol-5-yl)-3H-imidazo[4,5-b]pyridin-5-yl]-4-hydroxymethyl-piperidin-3-ol], for which the half-inhibitory concentration (IC50) came out at 66 nM at S. aureus DltA (setting [1]), 18 nM at E. feacalis DltA (setting [2]), 86 nM at E. feacium DltA (setting [3]) and 500 nM on S. Agalactiae DltA (setting [4]).
As for `CN(C)CCN(C)c1cc(-c2ccc3c(c2)ncn3CC(F)F)c2nc[nH]c2c1C(N)=O` [Example 163, 1′-(2,2-Difluoro-ethyl)-6-[(2-dimethylamino-ethyl)-methyl-amino]-1H,1′H-[4,5′]bibenzimidazolyl-7-carboxamide], the IC50 at S. aureus DltA (setting [1]) came to 14 nM; at E. feacalis DltA (setting [2]), 5.4 nM; on E. feacium DltA (setting [3]), 34 nM; at S. Agalactiae DltA (setting [4]), 780 nM.
The corresponding values for `CCCCn1cnc2cc(-c3cc(N(C)CCN(C)C)c(C(N)=O)c4[nH]cnc34)ccc21` [Example 203, 7-(1-butylbenzimidazol-5-yl)-5-[2-(dimethylamino)ethyl-methyl-amino]-3H-benzimidazole-4-carboxamide] are 28 nM, 7.3 nM, 110 nM and 350 nM.
Turning to `O=[N+]([O-])c1c(N2CC[C@H](CO)C2)cc(-c2ccc3c(c2)ncn3C2CCCCC2)c2nc[nH]c12` [Example 43, [(S)-1-(1′-Cyclohexyl-7-nitro-1H,1′H-[4,5′]bibenzimidazolyl-6-yl)-pyrrolidin-3-yl]-methanol], the half-inhibitory concentration (IC50) amounted to 85 nM on S. aureus DltA (setting [1]), 30 nM at E. feacalis DltA (setting [2]), 170 nM at E. feacium DltA (setting [3]) and 6300 nM on S. Agalactiae DltA (setting [4]).
The matching figures for `CN1CCC[C@@H]1COc1cc(-c2cnc3c(c2)CCCO3)c2nc[nH]c2c1C(N)=O` [Example 210, 7-(3,4-dihydro-2H-pyrano[2,3-b]pyridin-6-yl)-5-[[(2R)-1-methylpyrrolidin-2-yl]methoxy]-3H-benzimidazole-4-carboxamide methanesulfonic acid salt]: 6.2 nM, 5.1 nM, 36 nM and 150 nM.
As to `OCC1CCN(c2cc(-c3ccc4c(c3)ncn4C3CCCCC3)c3nc[nH]c3n2)CC1` [Example 3, {1-[7-(1-Cyclohexyl-1H-benzimidazol-5-yl)-3H-imidazo[4,5-b]pyridin-5-yl]-piperidin-4-yl}-methanol], the IC50 on S. aureus DltA (setting [1]) was 200 nM; at E. feacalis DltA (setting [2]), 52 nM; on E. feacium DltA (setting [3]) it was 100 nM; at S. Agalactiae DltA (setting [4]), 1400 nM.
For the molecule `CN(CCO)c1cc(-c2ccc3c(c2)ncn3C2CCCCC2)c2nc[nH]c2c1C(N)=O` [Example 117, 1′-Cyclohexyl-6-[(2-hydroxy-ethyl)-methyl-amino]-1H,1′H-[4,5′]bibenzimidazolyl-7-carboxamide], the IC50 turned out to be 23 nM at S. aureus DltA (setting [1]), 16 nM on E. feacalis DltA (setting [2]), 27 nM on E. feacium DltA (setting [3]) and 560 nM on S. Agalactiae DltA (setting [4]).
For the molecule `N#Cc1c(N2CC[C@H](CO)C2)cc(-c2ccc3c(c2)ncn3C2CCCCC2)c2nc[nH]c12` [Example 58, 1′-Cyclohexyl-6-((S)-3-hydroxymethyl-pyrrolidin-1-yl)-1H,1′H-[4,5′]bibenzimidazolyl-7-carbonitrile], the IC50 on S. aureus DltA (setting [1]) was 180 nM; on E. feacalis DltA (setting [2]), 120 nM; on E. feacium DltA (setting [3]), 230 nM; at S. Agalactiae DltA (setting [4]), 8600 nM.
On to `NC(=O)c1c(N2CCC(CCO)C2)cc(-c2ccc3c(c2)ncn3C2CCCCC2)c2nc[nH]c12` (stereo not drawn) [Example 77, 1′-Cyclohexyl-6-[3-(2-hydroxy-ethyl)-pyrrolidin-1-yl]-1H,1′H-[4,5′]bibenzimidazolyl-7-carboxamide], for which the IC50 on S. aureus DltA (setting [1]) was determined as 77 nM; at E. feacalis DltA (setting [2]), 41 nM; on E. feacium DltA (setting [3]) it was 110 nM; at S. Agalactiae DltA (setting [4]), 1300 nM.
The corresponding values for `CN(C)CCOc1cc(-c2ccc3c(c2)ncn3C2CCCCC2)c2nc[nH]c2c1C#N` [Example 104] are 53 nM, 84 nM, 390 nM and 2400 nM.
In the case of `CCN(CC)CCN(C)c1cc(-c2ccc3c(c2)ncn3C2CCCCC2)c2nc[nH]c2c1C(N)=O` [Example 130, 1′-Cyclohexyl-6-[(2-diethylamino-ethyl)-methyl-amino]-1H,1′H-[4,5′]bibenzimidazolyl-7-carboxamide], the concentration for half-maximal inhibition (IC50) on S. aureus DltA (setting [1]) amounted to 73 nM; on E. feacalis DltA (setting [2]), 36 nM; on E. feacium DltA (setting [3]), 170 nM; at S. Agalactiae DltA (setting [4]) it was 790 nM.
